# Measurements taken from the Bradley open melting point set (2014).
row,Compound,melting point [°C]
1,OCc1ccccc1 [Phenylmethanol],-15
2,O=C1NC(=O)C(c2ccccc2)(c2ccccc2)N1 [Phenytoin],286
3,O=C2c1ccccc1S(=O)(=O)N(C)C/2=C(O)Nc3ccccn3 [Piroxicam],199
4,C[C@]12C=CC(=O)C=C1CC[C@@H]1[C@@H]2C(=O)C[C@@]2(C)[C@H]1CC[C@]2(O)C(=O)CO [Prednisone],234
5,Clc1ccc(NC(/N)=NC(N)=NC(C)C)cc1 [Proguanil],129
6,C=CCO [Prop-2-en-1-ol],-129
7,CCC(=O)OC(=O)CC [Propanoic anhydride],-45
8,CCC#N [Propiononitrile],-92
9,CC(O)CO (centres undefined) [Propylene glycol],-60
10,Cc1ncc(CO)c(C=O)c1O [Pyridoxal],172
11,Cc1ncc(CO)c(CO)c1O [Pyridoxine],160
12,CC(=O)C(=O)O [Pyruvic acid],11.8
13,"C[C@@H](O)[C@@H](C)O [R,R-2,3-butanediol]",16
14,"CCCC(=O)OCSc1ncnc2c1ncn2COC(=O)CCC [S6,9-Bis(butanoyloxymethyl)-6-mercaptopurine]",69
15,C=CCC1([C@H](C)CCC)C(=O)NC(=O)NC1=O [Secobarbital],100
16,CCCC(C)(COC(N)=O)COC(N)=O [Sowell],104
17,CC(=O)NS(=O)(=O)c1ccc(N)cc1 [Sulfacetamide],182
18,Cc1ccnc(NS(=O)(=O)c2ccc(N)cc2)n1 [Sulfamerazine],236
19,Cc1cc(C)nc(NS(=O)(=O)c2ccc(N)cc2)n1 [Sulfamethazine] [listing 1 of 2 here],196
20,O=C(O)c1cc(/N=N/c2ccc(S(=O)(=O)Nc3ccccn3)cc2)ccc1O [Sulfasalazine],220
21,Cc1noc(NS(=O)(=O)c2ccc(N)cc2)c1C [Sulfisoxazole],194
22,O=S(=O)(O)Cl [Sulfurochloridic acid],-80
23,O=S(=O)(O)F [Sulfurofluoridic acid],-87.3
24,C[C@]12CC[C@H]3[C@@H](CCC4=CC(=O)CC[C@@]43C)[C@@H]1CC[C@@H]2O [Testosterone] [listing 1 of 2 here],154
25,C[C@]12CC[C@H]3[C@@H](CCC4=CC(=O)CC[C@@]43C)[C@@H]1CC[C@@H]2O [Testosterone] [listing 2 of 2 here],155
26,CCCCCCCCCCCCCCc1ccccc1 [Tetradecylbenzene],9
27,O=C1CCC(N2C(=O)c3ccccc3C2=O)C(=O)N1 (centres undefined) [Thalidomide],275
28,c1ccsc1 [Thiophene],-38

row,Compound,melting point [°C]
1,NC(N)=S [Thiourea],176
2,CCS(=O)(=O)CCn1c([N+](=O)[O-])cnc1C [Tinidazole],128
3,CC(C=CC=C(C)/C=C/C1=C(C)CCCC1(C)C)=CC(=O)O [Tretinoin],181
4,Nc1nc(N)c2nc(-c3ccccc3)c(N)nc2n1 [Triamterene],306
5,Cc1nnc2n1-c1ccc(Cl)cc1C(c1ccccc1Cl)=NC2 [Triazolam] [listing 1 of 2 here],234
6,Cc1nnc2n1-c1ccc(Cl)cc1C(c1ccccc1Cl)=NC2 [Triazolam] [listing 2 of 2 here],234
7,O=C(O)C(Cl)(Cl)Cl [Trichloroacetic acid],57
8,COB(OC)OC [Trimethyl borate],-34
9,c1ccc2c(c1)c1ccccc1c1ccccc21 [Triphenylene],199
10,CCCCCCCCCCCCCCCCCCCCCCCCCCCCCCCCC [Tritriacontane],72
11,CC(C)(C)NC(=O)C(c1ccccc1)N(Cc1ccco1)C(=O)CNC(=O)OC(C)(C)C (centres undefined) [Ugi product 206B(UC)],203
12,CCCCCCCCCCC [Undecane],-26
13,CCCCC(=O)OCC(=O)[C@]1(O)Cc2c(O)c3c(c(O)c2[C@@H](OC2CC(NC(=O)C(F)(F)F)C(O)C(C)O2)C1)C(=O)c1c(OC)cccc1C3=O (some centres undefined) [Valrubicin],116
14,Cc1cc(CC(=O)O)n(C)c1C(=O)c1ccc(Cl)cc1 [Zomepirac],178
15,CC1=CCC2CC1C2(C)C (centres undefined) [a-pinene],-62
16,CC(=O)O [acetic_acid],17
17,CC(=O)Cl [acetyl_chloride],-112
18,c1ccc2nc3ccccc3cc2c1 [acridine],109
19,Nc1nc2c(ncn2COCCO)c(=O)[nH]1 [acyclovir],265
20,C=CCO [allyl alcohol],-129
21,C=CCBr [allyl bromide],-119
22,C=CCCl [allyl chloride],-135
23,C=CCN=C=S [allyl isothiocyanate],-80
24,"BrC(Br)c1ccccc1C(Br)Br [alpha,alpha,alpha',alpha'-tetrabromo-o-xylene]",116
25,O=c1cc(-c2ccccc2)oc2c1ccc1ccccc12 [alpha-naphthoflavone],158
26,O=C(O)/C(=C/c1ccccc1)c1ccccc1 [alpha-phenylcinnamic acid],173
27,CCC1(CCC(C)C)C(=O)NC(=O)NC1=O [amobarbital],157

# The next lines start with the values.
row,melting point [°C],Compound
1,57,O=C(c1ccccc1)c1cccs1 [Phenyl(2-thienyl)methanone]
2,107,CCCCC1C(=O)N(c2ccccc2)N(c2ccccc2)C1=O [Phenylbutazone]
3,326,CC[C@H](C)C(=O)O[C@H]1C[C@H](O)C=C2C=C[C@H](C)[C@H](CC[C@@H](O)C[C@@H](O)CC(=O)O)[C@H]21 [Pravastatin]
4,136,O=C(C1CCCCC1)N1CC(=O)N2CCc3ccccc3C2C1 (centres undefined) [Praziquantel]
5,282,CCC1(c2ccccc2)C(=O)NCNC1=O [Primidone]
6,3,"CC(=O)OCC(COC(C)=O)OC(C)=O [Propane-1,2,3-triyl triacetate]"
7,82,N#Cc1ccc2c(c1)N(CCCN1CCC(O)CC1)c1ccccc1S2 [Propericiazine (JAN)]
8,164,CC(C)NCC(O)COc1cccc2ccccc12 (centres undefined) [Propranolol]
9,-99,CCCc1ccccc1 [Propylbenzene]
10,234,CCc1nc(N)nc(N)c1-c1ccc(Cl)cc1 [Pyrimethamine]
11,125,C[C@@H]1O[C@H](OC[C@@H]2O[C@H](Oc3c(-c4ccc(O)c(O)c4)oc4cc(O)cc(O)c4c3=O)[C@@H](O)[C@H](O)[C@H]2O)[C@@H](O)[C@H](O)[C@H]1O [Rutin]
12,158,CC(C)(C)NCC(O)c1ccc(O)c(CO)c1 (centres undefined) [Salbutamol]
13,142,NC(=O)c1ccccc1O [Salicylamide]
14,-31,C=Cc1ccccc1 [Styrene]
15,198,Cc1cc(C)nc(NS(=O)(=O)c2ccc(N)cc2)n1 [Sulfamethazine] [listing 2 of 2 here]
16,182,CC[C@@H]1OC(=O)[C@H](C)C(=O)[C@H](C)[C@@H](O[C@@H]2O[C@H](C)C[C@H](N(C)C)[C@H]2O)[C@](C)(OC)C[C@@H](C)C(=O)[C@H](C)[C@H]2N(CCCCn3cnc(-c4cccnc4)c3)C(=O)O[C@@]12C [Telithromycin]
17,120,CC(C)(C)NCC(O)c1cc(O)cc(O)c1 (centres undefined) [Terbutaline]
18,226,N#Cc1ccc(C#N)cc1 [Terephthalonitrile]
19,274,Cn1c(=O)c2nc[nH]c2n(C)c1=O [Theophylline]
20,-110,O=S(F)F [Thionyl difluoride]
21,188,Cc1cn([C@H]2C[C@H](O)[C@@H](CO)O2)c(=O)[nH]c1=O [Thymidine]
22,109,CN(C)CCOc1ccc(/C(=C(/CCCl)c2ccccc2)c2ccccc2)cc1 [Toremifene]
23,-64,[2H]C(Cl)(Cl)Cl [Trichloro(~2~H)methane]
24,24,CCCCCCCCCCCC(C)=O [Tridecan-2-one]
25,-5,CCCCCCCCCCCCC [Tridecane]

row,melting point [°C],Compound
1,-15,O=C(O)C(F)(F)F [Trifluoroacetic acid]
2,-63,O=C(OC(=O)C(F)(F)F)C(F)(F)F [Trifluoroacetic anhydride]
3,-91.5,CCCCC=O [Valeraldehyde]
4,139,COc1cc(C(=O)NS(=O)(=O)c2ccccc2C)ccc1Cc1cn(C)c2ccc(NC(=O)OC3CCCC3)cc12 [Zafirlukast]
5,61,CSC(SC)=C(C#N)C#N [[Bis(Methylthio)Methylene]Malononitrile]
6,149,O=C(O)COC(=O)Cc1ccccc1Nc1c(Cl)cccc1Cl [aceclofenac]
7,197,CC(=O)NC(CCC(N)=O)C(=O)O (centres undefined) [aceglutamide]
8,150,COc1ccc2c(c1)c(CC(=O)OCC(=O)O)c(C)n2C(=O)c1ccc(Cl)cc1 [acemetacin]
9,170,CC(=O)Nc1ccc(O)cc1 [acetaminophen]
10,114,CC(=O)Nc1ccccc1 [acetanilide]
11,17,CC(=O)O [acetic acid]
12,-83,COC(CC(C)=O)OC [acetylacetaldehyde dimethyl acetal]
13,257,O=C2/N=C(\Nc1n(cnc12)COCCO)N [acyclovir]
14,187,NC(=O)C12CC3CC(CC(C3)C1)C2 [adamantane-1-carboxamide]
15,153,O=C(O)CCCCC(=O)O [adipic acid]
16,292,CC(N)C(=O)O (centres undefined) [alanine]
17,209,CCCSc1ccc2[nH]c(NC(=O)OC)nc2c1 [albendazole]
18,210,C=CCN1C(=O)C(CC(C)C)NC1=S (centres undefined) [albutoin]
19,-99,C=CCI [allyl iodide]
20,100,O=C(O)C(Sc1ccccc1)c1ccccc1 (stereo not drawn) [alpha-(phenylthio)phenylacetic acid]
21,134,O=C[C@@H](O)[C@@H](O)[C@@H](O)[C@H](O)CO [alpha-D-talose]
22,103,NS(=O)(=O)Cc1ccccc1 [alpha-toluenesulfonamide]
23,109,C=CCc1ccccc1OCC(O)CNC(C)C (centres undefined) [alprenolol]
24,116,Nc1ccc2ccc3cccc4ccc1c2c34 [aminopyrene]
